Test results reported in US20080242594A1, “Methods for Promoting Stem Cell Proliferation and Survival” (priority 2005, published 2008).

How the values were obtained:
H9 hES cells = test: hES colony number formation, H9; format: cell-based, human; details: H9 line
Excerpt: The human ES cell lines HSF-6 (University of California, San Francisco; NIH # UC06, Passage 38-120) and H1 and H9 (WiCell Research Institute, NIH # WA01 and […]) were maintained on mouse embryonic fibroblasts (MEF) according to the suppliers' protocols. Immunocytochemistry and FACS analysis for the expression of Oct4 and SSEA4 and SKY karyotyping established that the starting cells are undifferentiated and have a normal set of chromosomes. For single cell survival experiments, hES colonies were harvested after treatment with 1.5 mg/ml collagenase type IV (Invitrogen), separated from the MEF feeder cells by repeated washing by gravity, gently triturated to break up colonies into small aggregates, further dissociated into a single cell solution by trypsination (0.05% trypsin/0.04% EDTA) and transferred on MEF feeder cells at a density of 10000 cells/ml. Oct-4 positive colonies were counted six days after plating. […]
The pro-survival effects of activation of Notch and inhibition of JAK was tested on HSF-6 (NIH code UC06, http://escell.ucsf.edu), H1 (NIH code WA01, www.wicell.org) and H9 (NIH code WA09, www.wicell.org) hES cells. Singly dissociated hES cells were plated on mouse embryo fibroblasts (MEFs), treated daily for one week and colony numbers counted. […]

Akt = Akt phosphorylation immunoblot in CNS stem cells; format: cell-based, mouse; details: for Akt (total) / Akt-pS473 / Akt-pT308: absence of insulin
Protocol: Insulin in the medium is also thought to promote cell survival. […] Seeding cells in the absence of insulin caused the plating efficiency measured at five days to drop to 29.9%±37.9 (FIG. 1e). Delta-4 was able to compensate for the lack of insulin in the medium, and restored plating efficiency (125%±19.4). Because Notch activation improved survival, activation of Akt, a ser/threonine kinase known to be involved in cell survival, was assayed. Notch activation rapidly (5 minutes) promoted the phosphorylation of Akt on Ser473 and […] in both the presence and absence of insulin (FIG. 1f).

Notch1 = test: Notch activation (Notch1IC / Notch ICD) immunocytochemical detection; format: cell-based, mouse; details: Insulin withdrawal, 2 days and then treat for 1 h
Excerpt: Antibodies were used that specifically bind: Notch1IC (Chemicon, 5352), GFP (Molecular Probes, A11122), Oct3/4 (Santa Cruz, sc-5279), SSEA1 and SSEA4 (Developmental Studies HybridomaBank), Tra-1-60 (Chemicon, MAB4360), Tra-1-81 (Chemicon, MAB4381), human nestin (Chemicon, MAB5326), Sox-1 (Gift from Dr. R Lovell-Badge), TH (Pel-Freez, P40101-0), Tuj1 (Covance, MMS-435P), rat nestin (McKay Lab), GFAP (Dako, z0334), CNPase (Chemicon, MAB326), BrdU (Accurate, H5903), DCX (Santa Cruz, sc-8066), Sox2 (R&D, MAB2018), Hu (Molecular Probes, A21271).
To assay for Notch activation, cultures were treated with the Notch ligands for 1 hour and Notch1 activation was detected by immunocytochemical staining of Notch1IC (FIG. 1b).
(§1) It was determined that insulin facilitates Notch cleavage using immunocytochemical detection.

[1] = system: adult mouse subventricular zone central nervous system stem cell cultures from wild-type mice; test: Survival of adult SVZ stem cell cultures, wild-type mice; format: cell-based
Protocol: It was determined that adult mouse subventricular zone central nervous system stem cell cultures from wild-type mice respond to D114 by generating twenty-four times more cells, whereas cultures from Hes3 knock-out mice respond to D114 by generating only three times more cells. Thus, in adult mouse neural stem cell cultures, D114 greatly promotes the survival of wild-type cells (23.7±1.7 fold increase), whereas it only slightly stimulates Hes3 knock-out culture survival (2.9±0.2 fold increase).

[2] = system: adult rat subventricular zone (SVZ); test: Dividing (BrdU+) cells in SVZ after single lateral ventricle injection; format: in vivo; details: BrdU for 3 days, sacrificed on the 5th day
Protocol: In vivo, Notch and insulin also increase the number of dividing cells in the adult rat subventricular zone (SVZ) 5 days after a single injection It was determined that Notch and insulin co-operate to promote new (BrdU+) cells in vivo. Specifically, the reagents infused in the lateral ventricle of adult rats as a single injection. The rats were then given BrdU for 3 days and sacrificed on the 5th day (Table 10).

IGF1/insulin receptor = IGF1/insulin receptor phosphorylation in foetal NSC cultures; format: cell-based, mouse
Protocol: Specifically, D114 induced the phosphorylation of IGF1/insulin receptor. Peak phosphorylation occurred at 2-5 minutes.
as §1

[3] = Insulin withdrawal, 2 days and then treat for 1 h

Row | Compound | colony number formation (H9 hES cells) | Akt (total) (Akt; Dll4, 5 min) | Akt-pS473 (Akt; Dll4, 5 min) | Akt-pT308 (Akt; Dll4, 5 min) | Akt (total) (Akt; Dll4, 10 min) | Akt-pS473 (Akt; Dll4, 10 min) | Akt-pT308 (Akt; Dll4, 10 min) | time of peak Akt phosphorylation on Ser473 and Ser308 (Akt; presence and absence of insulin, Western blotting) [min] | Notch ICD (Notch1) | survival, fold increase in cells [1] [fold] | Cell # [2] | pIGF1 (19H7) (IGF1/insulin receptor; [3]) | pIGF1 (3021) (IGF1/insulin receptor; [3]) | time of peak phosphorylation of IGF1/insulin receptor (IGF1/insulin receptor; foetal NSC cultures) [min]
1 | CC(C)(C)c1nc2c3ccc(F)cc3c3c(=O)[nH]ccc3c2[nH]1 [JAK Inhibitor, 2-(1,1-Dimethylethyl)-9-fluoro-3,6-dihydro-7H-benz[h]-imidaz[4,5-f]isoquinolin-7-one] | 347.6%±59.5 |  |  |  |  |  |  |  |  |  |  |  |  | 
2 | Delta-4: soluble Notch ligand Delta-4 (1389-D4) from R&D |  | Medium | High | High | Medium | Medium | Medium | 5 | Low | 23.7±1.7 | High | Low | Low | 2 to 5
